Earlier results in patent US20200113803A1, “ANHYDROUS COMPOSITION OF SMALL-MOLECULE POLYSACCHARIDES AND APPLICATION THEREOF” (SAGE PHARMACEUTICALS, INC., priority 2016, published 2020).

Settings: background statement

## Hyaluronic acid [HA]
  ability of HA to hold water: up to 1000 ml water for 1 g of HA
